Source: publication PMC10650415, “Synthesis of Tetracyclic Spirooxindolepyrrolidine-Engrafted Hydantoin Scaffolds: Crystallographic Analysis, Molecular Docking Studies and Evaluation of Their Antimicrobial, Anti-Inflammatory and Analgesic Activities” (Molecules, 2023)
Values after ≈ are worked out from the molar mass of the structure shown.

Assays:
[1] = system: Candida kreusei ATCC 6258; experiment: MIC, in vitro micro diffusion method; format: cell-based; conditions: C. krusei ATCC 6258
Description: (§1) In this part, the spiropyrrolidines 4a–m were selected to be screening for their antimicrobial activities, using in vitro micro diffusion method, against multiple bacterial strains (Staphylocoocus aureus ATCC 25923, Escherichia coli ATCC 25922, Pseudomonas aeruginosa ATCC 27950, Micrococcus luteus NCIMB 8166), and two pathogenic reference yeasts namely Candida albicans ATCC 90028 and Candida kreusei ATCC 6258.

C. albicans ATCC 90028 = experiment: MFC by the agar method; conditions: for MFC: Candida albicans, ATCC90028; for MFC/MIC ratio: C. Albicans, ≤ 4 fungicidal, >4 fungistatic
Procedure: (§2) To further determine the killing efficiency of the synthesized spiropyrrolidines against selected strains, the minimum bactericidal concentration (MBC) and the minimum fungicidal concentration (MFC) were assessed by the agar method [54].

C. kreusei ATCC 6258 = experiment: MFC by the agar method; conditions: for MFC: Pichia kudriavzevii, ATCC6258; for MFC/MIC ratio: C. Krusei, ≤ 4 fungicidal, >4 fungistatic
Procedure: as §2

[2] = biological target: T1, Lipoxygenase-5 (LOX-5) enzyme (Homo sapiens, UniProt P09917); experiment: In vitro lipoxygenase (LOX-5) inhibitory assay; format: biochemical; conditions: mean ± SEM, n = 5; read-out: IC50 (LOX-5 inhibition) (converted)
T1 construct: purchased sigma 437996-500U
T1 sequence (P09917 1-674): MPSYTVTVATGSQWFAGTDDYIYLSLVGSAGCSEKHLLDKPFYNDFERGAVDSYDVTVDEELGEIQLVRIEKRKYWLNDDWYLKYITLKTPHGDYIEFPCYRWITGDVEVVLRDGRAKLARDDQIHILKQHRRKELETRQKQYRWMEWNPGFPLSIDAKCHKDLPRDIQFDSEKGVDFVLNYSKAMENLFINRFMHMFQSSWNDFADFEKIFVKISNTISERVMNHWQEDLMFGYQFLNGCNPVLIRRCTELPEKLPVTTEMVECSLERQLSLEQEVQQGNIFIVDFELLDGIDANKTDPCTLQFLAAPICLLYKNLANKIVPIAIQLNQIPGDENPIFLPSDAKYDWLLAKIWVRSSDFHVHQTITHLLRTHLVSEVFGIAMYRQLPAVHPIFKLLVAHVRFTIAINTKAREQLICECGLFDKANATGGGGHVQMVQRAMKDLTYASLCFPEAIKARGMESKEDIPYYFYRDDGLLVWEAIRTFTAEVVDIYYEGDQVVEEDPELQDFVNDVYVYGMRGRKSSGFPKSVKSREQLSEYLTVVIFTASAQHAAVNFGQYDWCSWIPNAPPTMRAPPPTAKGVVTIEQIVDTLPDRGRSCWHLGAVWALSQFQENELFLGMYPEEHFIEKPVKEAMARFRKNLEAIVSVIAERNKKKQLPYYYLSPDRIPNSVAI
Procedure: Lipoxygenases are a family of monomeric proteins that catalyze oxidation of polyunsaturated fatty acids (PUFA) (linoleic, linolenic and arachidonic acid) to produce hydroperoxides. Fractions’ anti-LOX activity was also measured as inhibition of linoleic acid’s peroxidation to hydroperoxylinoleic acid.
To evaluate the prospects of the newly synthesized spirooxindoles as promising drug candidates, we first studied their inhibitory potency against the Lipoxygenase-5 (LOX-5) enzyme.

S. aureus ATCC 25923 = experiment: MBC by the agar method; conditions: for MBC: Staphylococcus aureus, ATCC25923
Procedure: as §2

M. luteus NCIMB 8166 = experiment: MBC by the agar method; conditions: for MBC: Micrococcus luteus, NCIMB8166; for MBC/MIC ratio: M. luteus, ≤ 4 bactericidal, >4 bacteriostatic
Procedure: as §2

E. coli ATCC 25922 = experiment: MBC by the agar method
Procedure: as §2

P. aeruginosa ATCC 27950 = experiment: MBC by the agar method; conditions: Pseudomonas aeruginosa, ATCC27950
Procedure: as §2

[3] = system: Micrococcus luteus NCIMB 8166; experiment: MIC, in vitro micro diffusion method; format: cell-based; conditions: NCIMB8166, M. luteus NCIMB 8166
Description: as §1

[4] = system: Staphylocoocus aureus ATCC 25923; experiment: MIC, in vitro micro diffusion method; format: cell-based; conditions: Staphylococcus aureus, ATCC25923; S. aureus ATCC 25923
Description: as §1

[5] = system: λ-carrageenan-induced paw edema; experiment: Carrageenan-induced paw edema test; format: in vivo; conditions: rats; for Increase in Paw Volume, 0 h / Increase in Paw Volume, 1 h / Increase in Paw Volume, 2 h / Increase in Paw Volume, 4 h: 10 mg/kg orally 1 h before carrageenan; for % Inhibition of Edema, 1 h / % Inhibition of Edema, 2 h / % Inhibition of Edema, 4 h: 10 mg/kg orally
Description: Diclofenac sodium was used as a reference drug.

[6] = system: acetic acid-induced writhing; experiment: Acetic acid-induced writhing test (analgesic); conditions: 100 mg/kg; for Number of Writhing: mean ± SE
Procedure: Any writhing was considered a positive response. The efficacy and potency of analgesic activity of the test compounds is inferred from the reduction in the frequency of writhings [53].
Analgesic activity in rats was determined by the protocol described by Tiss et al. [82].

[7] = Acute toxicity (liver and kidney indices); format: in vivo; conditions: rats; for ALT / AST / Albumin / Creat / Urea: dose of 16.25 mg/kg; for Acute toxicity (result in words): up to a dose of 16.25 mg/kg
[8] = system: Escherichia coli ATCC 25922; experiment: MIC, in vitro micro diffusion method; format: cell-based; conditions: ATCC25922, E. coli ATCC 25922
[9] = Escherichia coli, ATCC25922, E. coli ATCC 25922

Row | SMILES | MFC (C. albicans ATCC 90028) [µg/mL] | MFC (C. kreusei ATCC 6258) [µg/mL] | IC50 [2] [mM] | melting point [°C] | MBC (S. aureus ATCC 25923) [µg/mL] | MBC (M. luteus NCIMB 8166) [µg/mL] | MBC (E. coli ATCC 25922; [9]) [µg/mL] | MBC (P. aeruginosa ATCC 27950) [µg/mL] | MIC [3] [µg/mL] | MBC (E. coli ATCC 25922; E. coli ATCC 25922) [µg/mL] | MFC/MIC ratio (C. albicans ATCC 90028) | MFC/MIC ratio (C. kreusei ATCC 6258) | also measured
1 | C[C@@H]1[C@H](O)[C@@H](C)/C=C/C=C/C=C/C=C/C=C/C=C/C=C/[C@H](O[C@@H]2O[C@H](C)[C@@H](O)[C@H](N)[C@@H]2O)C[C@@H]2O[C@](O)(C[C@@H](O)C[C@@H](O)[C@H](O)CC[C@@H](O)C[C@@H](O)CC(=O)O[C@H]1C)C[C@H](O)[C@H]2C(=O)O [Amphotericin B, reference compound] | 500 (≈ 541 µM) | 62.5 (≈ 67.6 µM) |  |  |  |  |  |  |  |  |  |  | MIC [1]: 62.5 µg/mL (≈ 67.6 µM)
2 | O=C1NC(=O)[C@]2(N1)[C@@H](c1ccc(F)cc1)[C@H](c1ccccc1)N[C@@]21C(=O)Nc2ccc(Cl)cc21 (racemic) [4j] | 93.8 (≈ 197 µM) | 188 (≈ 393 µM) | 4.03 | 208 | 93.8 (≈ 197 µM) | 750 (≈ 1570 µM) | 188 (≈ 393 µM) | 93.8 (≈ 197 µM) |  |  |  |  | 
3 | O=C1NC(=O)[C@]2(N1)[C@@H](c1ccc(Cl)cc1)[C@H](c1ccccc1)N[C@@]21C(=O)Nc2ccc(Br)cc21 (racemic) [4h] | > 1500 | > 1500 | 3.09 | 198 | 188 (≈ 349 µM) | 188 (≈ 349 µM) | 188 to 374 (≈ 349 to 695 µM) | 188 (≈ 349 µM) | 93.8 (≈ 174 µM) | 375 (≈ 697 µM) |  |  | MBC/MIC ratio (M. luteus NCIMB 8166): 8
4 | O=C1NC(=O)[C@]2(N1)[C@@H](c1ccc(Cl)cc1)[C@H](c1ccccc1)N[C@@]21C(=O)N(Cc2ccccc2)c2ccccc21 (racemic) [4f] | 93.8 (≈ 171 µM) | 93.8 (≈ 171 µM) | 8.96 | 195 | 188 (≈ 342 µM) | 750 (≈ 1370 µM) | 188 to 374 (≈ 342 to 681 µM) | 375 (≈ 683 µM) |  | 375 (≈ 683 µM) |  |  | 
5 | Cc1ccc([C@H]2[C@H](c3ccccc3)N[C@@]3(C(=O)Nc4ccc(Br)cc43)[C@@]23NC(=O)NC3=O)cc1 (racemic) [4b] | 188 (≈ 362 µM) | 93.8 (≈ 181 µM) | 5.66 | 236 | 750 (≈ 1450 µM) | 750 (≈ 1450 µM) | 188 to 374 (≈ 362 to 723 µM) | 93.8 (≈ 181 µM) |  | 375 (≈ 725 µM) | ≤ 4 | ≤ 4 | MIC [4]: 46.9 µg/mL (≈ 90.6 µM); MBC/MIC ratio (S. aureus ATCC 25923; S. aureus, ≤ 4 bactericidal, >4 bacteriostatic): 16
6 | O=C(O)Cc1ccccc1Nc1c(Cl)cccc1Cl [Diclofenac sodium, reference compound] |  |  |  |  |  |  |  |  |  |  |  |  | Increase in Paw Volume, 0 h [5]: 0.41 ± 0.11; Increase in Paw Volume, 1 h [5]: 0.59 ± 0.13; Increase in Paw Volume, 2 h [5]: 0.83 ± 0.19; Increase in Paw Volume, 4 h [5]: 1.21 ± 0.39; % Inhibition of Edema, 1 h [5]: 30%; % Inhibition of Edema, 2 h [5]: 46%; % Inhibition of Edema, 4 h [5]: 46%; % Inhibition (writhing) [6]: 63%; Number of Writhing [6]: 23 ± 4; Number of Writhing ([6]; listed as diclofenac sodium): 23
7 | COc1ccc([C@H]2[C@H](c3ccccc3)N[C@@]3(C(=O)Nc4ccccc43)[C@@]23NC(=O)NC3=O)cc1 (racemic) [4d] | > 1500 | 93.8 (≈ 206 µM) | 5.15 | 187 | 93.8 (≈ 206 µM) | 750 (≈ 1650 µM) | 188 to 374 (≈ 413 to 823 µM) | 188 (≈ 413 µM) |  | 375 (≈ 825 µM) |  |  | 
8 | O=C1NC(=O)[C@]2(N1)[C@@H](c1ccc(Br)cc1)[C@H](c1ccccc1)N[C@@]21C(=O)N(Cc2ccccc2)c2ccccc21 (racemic) [4g] | 93.8 (≈ 158 µM) | 93.8 (≈ 158 µM) | 8.36 | 223 | 46.9 (≈ 79 µM) | > 1500 | 188 to 374 (≈ 316 to 630 µM) | 188 (≈ 316 µM) | 93.8 (≈ 158 µM) | 375 (≈ 632 µM) | ≤ 4 | ≤ 4 | MIC [4]: 23.3 µg/mL (≈ 39.3 µM); MBC/MIC ratio (M. luteus NCIMB 8166): 8
9 | O=C1NC(=O)[C@]2(N1)[C@@H](c1ccccc1O)[C@H](c1ccccc1)N[C@@]21C(=O)Nc2ccccc21 (racemic) [4l] | 188 (≈ 426 µM) | 93.8 (≈ 213 µM) | 2.47 |  | 93.8 (≈ 213 µM) | 750 (≈ 1700 µM) | 188 (≈ 426 µM) | 93.8 (≈ 213 µM) |  |  | ≤ 4 | ≤ 4 | Increase in Paw Volume, 0 h [5]: 0.57 ± 0.19; Increase in Paw Volume, 1 h [5]: 0.93 ± 0.13; Increase in Paw Volume, 2 h [5]: 1.26 ± 0.31; Increase in Paw Volume, 4 h [5]: 1.73 ± 0.33; % Inhibition of Edema, 1 h [5]: 29%; % Inhibition of Edema, 2 h [5]: 18%; % Inhibition of Edema, 4 h [5]: 32%; ALT [7]: 22 ± 1.7 U/L; AST [7]: 101 ± 11 U/L; Albumin [7]: 8.5 ± 1.1 g/L; Creat [7]: 3.41 ± 0.8 µmol/L; Urea [7]: 2.97 ± 0.5 mmol/L; Acute toxicity (result in words) [7]: did not cause any toxicity; MIC [4]: 46.9 µg/mL (≈ 106 µM); % Inhibition (writhing) [6]: 53%; Number of Writhing [6]: 29 ± 6
10 | O=C1NC(=O)[C@]2(N1)[C@@H](c1ccccc1O)[C@H](c1ccccc1)N[C@@]21C(=O)Nc2ccc(Cl)cc21 (stereo in doubt) [4m] | 93.8 (≈ 197 µM) | 93.8 (≈ 197 µM) | 2.99 | 223 | 93.8 (≈ 197 µM) | 188 (≈ 395 µM) | 188 to 374 (≈ 395 to 788 µM) | 188 (≈ 395 µM) | 93.8 (≈ 197 µM) | 375 (≈ 790 µM) | ≤ 4 | ≤ 4 | MIC [8]: 188 µg/mL (≈ 395 µM)
11 | O=C1NC(=O)[C@]2(N1)[C@@H](c1ccc(F)cc1)[C@H](c1ccccc1)N[C@@]21C(=O)Nc2ccc(Br)cc21 (racemic) [4k] | 188 (≈ 360 µM) | 188 (≈ 360 µM) | 2.97 | 223 | 188 (≈ 360 µM) | > 1500 | 188 (≈ 360 µM) | 188 (≈ 360 µM) |  |  | ≤ 4 | ≤ 4 | 
12 | CN(C)[C@@H]1C(O)=C(C(N)=O)C(=O)[C@@]2(O)C(O)=C3C(=O)c4c(O)cccc4[C@@](C)(O)[C@H]3C[C@@H]12 [Tetracycline, reference compound] |  |  |  |  | 8 (≈ 18 µM) | 512 (≈ 1150 µM) | 512 (≈ 1150 µM) | 128 (≈ 288 µM) | 500 (≈ 1130 µM) |  |  |  | 
13 | O=C1NC(=O)[C@]2(N1)[C@@H](c1ccc(F)cc1)[C@H](c1ccccc1)N[C@@]21C(=O)Nc2ccccc21 (racemic) [4i] | 93.8 (≈ 212 µM) | 188 (≈ 424 µM) | 2.28 |  | 750 (≈ 1700 µM) | > 1500 | 750 (≈ 1700 µM) | 188 (≈ 424 µM) |  |  | ≤ 4 | ≤ 4 | Increase in Paw Volume, 0 h [5]: 0.43 ± 0.14; Increase in Paw Volume, 1 h [5]: 0.98 ± 0.11; Increase in Paw Volume, 2 h [5]: 1.13 ± 0.21; Increase in Paw Volume, 4 h [5]: 1.51 ± 0.13; % Inhibition of Edema, 1 h [5]: 27%; % Inhibition of Edema, 2 h [5]: 25%; % Inhibition of Edema, 4 h ([5]; 10 mg/kg): 33%; ALT [7]: 21.1 ± 1.5 U/L; AST [7]: 98.3 ± 13 U/L; Albumin [7]: 8.7 ± 1.66 g/L; Creat [7]: 3.31 ± 0.9 µmol/L; Urea [7]: 2.83 ± 0.7 mmol/L; Acute toxicity (result in words) [7]: did not cause any toxicity; % Inhibition (writhing) [6]: 42%; Number of Writhing [6]: 36 ± 5
